In assay [1] the test system is SK-N-SH cells. Put plainly: Total protein ubiquitination, western blot (P4D1). The assay is classed as cell-based, human. On the procedure: (§1) To determine the FFAR2 signal activating property of selected compounds, SK-N-SH cells were treated with 10 μM of shortlisted compounds for 30 min at 37° C. and harvested for total protein extraction. Cells were harvested after 30 min of incubation because ERK1/2 phosphorylation upon FFAR2 activation is a quick event (Jiao et al., 2002; Bhattacharjee et al., 2010). Total protein from the cells was extracted using a lysis buffer [consisting of 10 mmol/L Tris (pH 7.6), 150 mmol/L NaCl, 10 mmol/L Sodium orthovanadate, 10 mmol/L Sodium Pyrophosphate, 100 mmol/L Sodium fluoride, 1 mmol/L EDTA, 1 mmol/L EGTA, 1% Triton X-100, 0.5% NP-40 and a cocktail of protease inhibitors (Roche); Yadav et al., 2011, 2017; Ahmadi et al., 2019, 2020a]. After sonication, cell extracts were centrifuged at 8,000×g for 10 min at 4° C., and the supernatant was separated in a fresh tube. The total protein concentration of the supernatant was measured using a BCA protein assay kit. […] Band densities were also quantified using NIH ImageJ software. β-actin was used as an internal control.
Background: A western blot detects proteins with antibodies after separation by electrophoresis.

The test system of the next assay is proteasome. Put plainly: Proteasome activity assay in brain of APP/PS1 mice. It counts as in vivo. The following applies: 80 mg/kg daily oral gavage, 3 months. The procedure:
Brains were collected and immediately homogenized in proteasome lysis buffer and proteasome activity was measured as described below. All the animal procedures and experiments were approved by the institutional animal care and use committee (IACUC) of the Wake Forest School of Medicine and the University of South Florida.
The CL2006 strain, SK-N-SH cells, and brain tissues were sonicated in a lysis buffer (150 mM NaCl, 50 mM HEPES, 2 mM DTT, 20 mM NaF, 5 mM EDTA, 2.5 mM sodium pyrophosphate, 1 mM sodium orthovanadate, and 1 mM α-glycerophosphoric acid) and then centrifuged at 15,000 g at 4° C. for 15 min. Total protein was assayed using BCA kit and 20 μg protein was mixed with 140 μM suc-leu-leu-val-tyr-7-amino-4-methylcou-marin (AMC) in a proteasome activity assay buffer (150 mM NaCl, 50 mM HEPES [pH 7.4], 5 mM ATP, and 5 mM EDTA), and then the fluorescence (excitation 380 nm and emission 460 nm) was measured every 10 min over 3 h using a microplate reader. The assay was performed with and without the proteasome inhibitor MG132 (10 μM).

Assay [2] deals with FFAR2 signaling. Put plainly: Intracellular calcium assay in SK-N-SH cells. It counts as cell-based, human. As to conditions: 10 μM. The procedure:
FFAR2 signaling activation increases intracellular calcium (Falomir-Lockhart et al., 2019). To further determine the activation potential of selected compounds for this signaling, we plated the SK-N-SH cells (1.25×10^3 cells per well) into a dark 96-well plate for 24 h. […] Also, 0.01 M EDTA (Sigma) and […] carbachol were used as negative and additional positive controls, respectively. After 15 min, the cells were treated with […] Direct™ calcium reagent along with […] probenecid and further incubated at 37° C. for 30 min. The fluorescence was measured with excitation at 494 nm and emission at 516 nm using a microplate reader.
In general terms: Calcium assays in cells follow changes in intracellular calcium, usually with a dye or a luminescent sensor.

Assay [3] has as its system C. elegans CL2355 and CL2122. Put plainly: Chemotaxis activity in C. elegans. The following applies: 10 μg/ml. It counts as in vivo. The procedure: Then the worms were washed twice with S-Basal media and transferred to an NGM plate without E. coli OP50. These plates were divided into four equal sectors, with 1 μl of 0.1% benzaldehyde as an odorant and 1 μl of 1 M sodium azide as an anesthetic to arrest the worms upon reaching the quadrant were added to the original spot. On the opposite side of the attractant, a 1 μl drop of sodium azide and 1 μl of control odorant (100% ethanol) were added onto the NGM agar plate. Around 40-45 worms were placed in the center of each plate, incubated at room temperature for 1 h, and transferred to 4° C. overnight. The chemotaxis index (CI) was scored using the following formula: (number of worms at the attractant location […])/total number of worms on the plate ([…] et al., 2013).

The subject of assay [4] is FFAR2 signaling. Nature of the assay: cAMP-Glo assay, forskolin-induced cAMP in SK-N-SH cells. It counts as cell-based, human. The following applies: 10 μM compound, 10 μM forskolin. On the procedure: FFAR2 is a Gi/o signaling receptor, which reduces cytosolic cAMP (Falomir-Lockhart et al., 2019). To determine the FFAR2 signaling activating potential of selected compounds, the cAMP-Glo™ Assay was used to measure intracellular cAMP. SK-N-SH cells (1×10^3 cells per well) were plated in a white 96-well plate for 24 h and then treated with 10 μM compounds and 10 μM forskolin (a positive control) dissolved in induction buffer. The cAMP levels were detected using a Luminescence Microplate Reader.

For assay [5], the system named is SK-N-SH cells. Nature of the assay: Aβ accumulation in SK-N-SH cells (western blot). The assay is classed as cell-based, human. As to conditions: vs Aβ-only treated controls, FFAR2 dependent. On the procedure: as §1

Entries after “also recorded” stand apart in the source; their conditions may differ.

Turning to `CC12CCC(C1)C(C)(C)C2O` (stereo not drawn) [Fenchol], the protein ubiquitinylation result in the assay on SK-N-SH cells [1] is listed as “did not change”. In addition, in the assay on proteasome (APP/PS1 mice cortex), the proteasomal activity result is on record as “significantly increased”. The proteasomal activity entry in the assay on proteasome (APP/PS1 mice hippocampus) was “significantly increased”. Moreover, the “increase in intracellular calcium levels” value in the assay with FFAR2 signaling [2] was “highest increase”. Besides, the “memory behavior / chemotaxis index” value in assay [3] (CL2355 worms overexpressing human Aβ) is “significantly higher; also recorded: preserved”. The chemotaxis index result in assay [3] (control CL2122 strain) is on record as “normal effects”. In the assay on FFAR2 signaling [4], the “cAMP upon Forskolin-stimulation, ascending order” value is “Fenchol<Carvamenthenol<α-Terpineol<Carene<Pentanone<Octopamine<Camphene” and the “decrease in cAMP upon Forskolin-stimulation” value was “highest decrease”. The Aβ-accumulation entry in the assay on SK-N-SH cells [5] is listed as “significantly reduced”.

The values above are taken from patent publication US12447135B2 (University of South Florida, priority 2021, dated 2025).
